Assay results reported in US20050084490A1, “Boroproline compound combination therapy” (Point Therapeutics, Inc., priority 2002, published 2005).

How the values were obtained:
WEHI 164 tumor cells = experiment: WEHI 164 tumor growth and rejection in euthymic and athymic BALB/c mice; format: in vivo; conditions: 5 μg dose; for tumor growth (tumor volume): day 2 until day 20 after tumor inoculation
Experimental: Normal euthymic BALB/c mice (+/+) or athymic BALB/c mice that are congenitally deficient in mature T lymphocytes (nu/nu) were inoculated with WEHI 164 tumor cells. The mice were administered a 5 μg dose of PT-100 or saline (control) from day 2 until day 20 after tumor inoculation and tumor volumes ([…]) were measured at the times indicated on the ordinate. Each treatment group contained 10 replicate mice. […] In euthymic mice, however, tumors were completely rejected by day 20 in 40 per cent of the mice treated with PT-100 whereas tumor rejection was not observed in PT-100 treated athymic mice. In the WEHI 164 tumor model, tumor rejection never occurred spontaneously in control mice. […] The data are consistent with a mechanism of action involving increased production of cytokines and chemokines in mice treated with PT-100 as described in Example 1.

IL-1β, G-CSF and KC [1] = experiment: ELISA of IL-1β, G-CSF and KC in serum and spleen extracts of BALB/c mice; format: in vivo; conditions: 20 μg oral, 8 hours after administration
Experimental: BALB/c mice were orally administered 20 μg PT-100 or saline as indicated on the abscissae. Eight hours after PT-100 administration, IL-1β, G-CSF and KC levels were determined by ELISA (R&D Systems) of serum and extracts of spleens. Cytokine and chemokine levels are indicated on the ordinate as pg/ml or ng/ml of serum, and as pg/mg or ng/mg of protein in each spleen extract as determined by BCA protein assays (Pierce).

IL-1β, G-CSF and KC [2] = experiment: ELISA of IL-1β, G-CSF and KC in serum and spleen extracts of B6 and IL-1 receptor-1 mutant mice; format: in vivo; conditions: 40 or 160 μg oral, 8 hours
Experimental: Normal B6 mice (+/+) and congenic B6.129S7-Illr1^tmllmx mice with a targeted mutation of the IL-1 receptor-1 (−/−) were orally administered 40 or 160 μg of PT-100 or saline as indicated on the abscissae. 8-hours after PT-100 administration, IL-1β, G-CSF and KC levels were determined by ELISA of serum and extracts of spleen. Cytokine and chemokine levels are indicated on the ordinate as pg/ml or ng/ml of serum, and as pg/mg or ng/mg of protein in each spleen extract as determined by BCA protein assays.

[3] = test system: cytokine and chemokine genes; experiment: Cytokine and chemokine gene expression (Affymetrix GeneChips) in lymph nodes and WEHI 164 tumors; format: in vivo, mice; conditions: 5 μg twice daily
Experimental: (§1) Mice were inoculated with WEHI 164 cells, and starting 2 days later, administered (twice daily) a 5 μg dose of PT-100 or saline (control). RNA extracted from lymph nodes and tumors 2 hours after the first dose of PT-100 on day 4 after tumor inoculation was processed, labeled and hybridized to Affymetrix GeneChips according to the manufacturer's instructions. The log ratio of expression values (PT-100 treated:saline treatment) has been plotted on the ordinates for the cytokine and chemokine genes indicated on the abscissae. Zero values indicate that gene expression was either undetectable or unaffected by PT-100 treatment.
as §1, with “tumors 30 minutes or” for “tumors”, “ratios for” for “ratio of”, “have” for “has”, “cytokine” for “cytokine and chemokine”, “treatment. […]” for “treatment.”

Namalwa cells = experiment: NOD/SCID mouse model of Burkitt's Non-Hodgkin's Lymphoma; format: in vivo, NOD/SCID mice; conditions: Namalwa subcutaneous tumors; PT-100 5 μg twice daily day 2 to 20; antibody or normal human IgG 1.5 mg on days 3, 5 and 7
Experimental: Immunodeficient NOD/SCID mice were inoculated with Namalwa cells derived from a Burkitt's NHL. The human lymphoma cells proliferated in the immunodeficient mice to form solid subcutaneous tumors. Mice were administered 1.5 mg of normal human lgG or 1.5 mg of a human CD20-specific antibody (Rituxan) on each of days 3, 5 and 7 after tumor inoculation. Additional treatments with 5 μg PT-100 administered twice daily from day 2 until day 20 after tumor inoculation were given as indicated in the Figure Legend. The four treatment groups each contained 4 or 5 replicate mice. The data represent mean tumor volumes (±SE). Control treatment with normal human IgG had no effect on tumor growth as compared with saline treatment (data not shown). […] The data support the concept that when combined together, PT-100 and a tumor-specific antibody can have a greater growth inhibitory effect against a tumor than either treatment by itself.

[4] = IL-1 receptor-1 mutant (−/−) mice

| Compound | tumor growth (tumor volume) (WEHI 164 tumor cells; athymic BALB/c (nu/nu) mice) | tumor rejection (WEHI 164 tumor cells; athymic BALB/c mice, day 2 until day 20) | mice with tumors completely rejected by day 20 (WEHI 164 tumor cells; euthymic BALB/c mice, day 2 until day 20) | tumor growth (tumor volume) (WEHI 164 tumor cells; normal euthymic BALB/c (+/+) mice) | G-CSF levels in serum (IL-1β, G-CSF and KC [1]; serum) | IL-1β serum levels (IL-1β, G-CSF and KC [1]; serum) | KC levels in serum (IL-1β, G-CSF and KC [1]; serum) | G-CSF levels in spleen (IL-1β, G-CSF and KC [1]; spleen extract) | IL-1β levels in spleen tissue (IL-1β, G-CSF and KC [1]; spleen extract) | KC levels in spleen (IL-1β, G-CSF and KC [1]; spleen extract) | IL-1β levels in the spleen (IL-1β, G-CSF and KC [2]; IL-1 receptor-1 mutant (−/−) mice compared to normal B6 mice) | serum G-CSF levels (IL-1β, G-CSF and KC [2]; [4]) | serum KC levels (IL-1β, G-CSF and KC [2]; [4]) | splenic G-CSF levels (IL-1β, G-CSF and KC [2]; [4]) | splenic KC levels (IL-1β, G-CSF and KC [2]; [4]) | cytokine and chemokine gene expression in tumor and draining inguinal lymph nodes ([3]; WEHI 164 tumor mice, 2 hours after first dose on day 4 after tumor inoculation) | IL-1β mRNA levels in lymph nodes ([3]; oral, 30 minutes vs 2 hours after first dose on day 4, inguinal lymph nodes draining WEHI 164 tumors) | tumor growth (mean tumor volume) (Namalwa cells) |
| --- | --- | --- | --- | --- | --- | --- | --- | --- | --- | --- | --- | --- | --- | --- | --- | --- | --- | --- |
| CC(C)[C@H](N)C(=O)N1CCC[C@H]1B(O)O [PT-100, Val-boroPro] | significantly inhibited tumor growth | not observed | 40 per cent of the mice | significantly inhibited tumor growth | increased in both spleen and serum | without increasing serum levels | increased in both spleen and serum | increased in both spleen and serum | increases IL-1β levels in spleen tissue | increased in both spleen and serum | could still increase IL-1β levels in the spleen; but the magnitude of the response was greatly reduced | essentially unaffected | essentially unaffected | essentially unaffected | essentially unaffected | selective induction of cytokine and chemokine gene expression | increase in lymph nodes before those of other cytokines | significantly (p<0.05) inhibited tumor growth |
| Rituxan: human CD20-specific antibody (anti-CD20 mAb rituximab) [reference compound] |  |  |  |  |  |  |  |  |  |  |  |  |  |  |  |  |  | significantly (p<0.05) inhibited tumor growth |
